One data set in a line: Solubility. Type of data set: physicochemical. The conditions noted are these: water; HCl salt.
Another data set has as its target metal-free Aβ40/Aβ42 (Homo sapiens, UniProt P05067). Also on record: method as in PMID 26575890. The conditions noted are these: cited from earlier work.

Structures can show the parent of a compound that is named as a salt.

Sequence of metal-free Aβ40/Aβ42 (P05067 672-711 limits assumed): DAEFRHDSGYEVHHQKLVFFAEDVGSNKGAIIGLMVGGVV

Turning to `Nc1ccc(NCc2ccccn2)cc1` [HCl salt of 1, N^1-(pyridin-2-ylmethyl)benzene-1,4-diamine], in “Solubility”, the solubility (as a rule, the dissolved amount per volume that the medium holds) is approximately 800 mg/mL.
As for `CN(C)c1ccc(N)cc1` [DMPD, N,N-dimethyl-p-phenylenediamine], the “Interaction with Aβ and redirection of self-assembly” value at metal-free Aβ40/Aβ42 was “interact with both metal-free Aβ and metal–Aβ and redirect their self-assembly routes to form off-pathway aggregates”.
